Data published in the supplement of paper PMC11451515.

How the values were obtained:
Conditions in all cases: 48 h
[1] = test system: SEM cells; test: AUC of viability dose-response curve (% viability x log10 dose units); higher = less sensitive
Summary of the method: (§1)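 Viability of medium-adapted leukemia cells was measured by CellTiter-Glo One luminescence after 48 h at 37°C with library compounds in DMSO. Doses were 11 threefold steps from 47 μM to 0.79 nM, in 1536-well plates at 500 or 1000 cells/well. Signals were normalised per plate to DMSO and cell-free wells and fitted with a four-parameter log-logistic model on log10 dose. Area under the curve was integrated by trapezoidal rule, with curves exceeding full viability scaled and failed quality-control curves removed.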

[2] = test system: P12-Ichikawa; test: as above
Summary of the method: as §1

[3] = test system: NOMO1; test: as above
Summary of the method: as §1

[4] = test system: SEM cells; test: cell viability relative to DMSO control; higher = less cytotoxic
Summary of the method: (§2)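 Viability is expressed as a percentage of DMSO wells within each plate, and cell-free wells serve as background. Seeding densities in the 1536-well plates (5 μl) were 500 cells/well for NOMO1 or SEM leukemia cells and 1000 cells/well for P12-Ichikawa. Each line was adapted for at least four passages in each medium. Library compounds in DMSO were pin-dosed at 47 μM to 0.79 nM (11 points, threefold), and CellTiter-Glo One luminescence was read after 48 h at 37°C.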

[5] = test system: P12-Ichikawa; test: as above
Summary of the method: as §2

[6] = test system: NOMO1; test: as above
Summary of the method: as §2

COc1cc2c(cc1OC)CC(=O)N(CCCN(C)C[C@H]1Cc3cc(OC)c(OC)cc31)CC2.Cl
AUC of viability dose-response curve
Conditions | [1] | [2] | [3]
HPLM + 10% dialyzed FBS | 464 | 475 | 466
RPMI 5 mM glucose + 10% FBS | 465 | 477 | 463
RPMI 5 mM glucose + 10% dialyzed FBS | 469 | 459 | 440

cell viability [%]
Conditions | [4] | [5] | [6]
HPLM + 10% dialyzed FBS, 0.000781 µM | 102 | 108 | 126
HPLM + 10% dialyzed FBS, 0.00234 µM | 96.8 | 111 | 115
HPLM + 10% dialyzed FBS, 0.00702 µM | 116 | 111 | 107
HPLM + 10% dialyzed FBS, 0.0211 µM | 115 | 108 | 122
HPLM + 10% dialyzed FBS, 0.0632 µM | 112 | 104 | 97.1
HPLM + 10% dialyzed FBS, 0.19 µM | 125 | 120 | 111
HPLM + 10% dialyzed FBS, 0.569 µM | 114 | 113 | 122
HPLM + 10% dialyzed FBS, 1.71 µM | 111 | 114 | 112
HPLM + 10% dialyzed FBS, 5.12 µM | 112 | 116 | 114
HPLM + 10% dialyzed FBS, 15.4 µM | 114 | 108 | 115
HPLM + 10% dialyzed FBS, 46.1 µM | 105 | 106 | 109
RPMI 5 mM glucose + 10% FBS, 0.000781 µM | 99.2 | 97.5 | 104
RPMI 5 mM glucose + 10% FBS, 0.00234 µM | 105 | 106 | 105
RPMI 5 mM glucose + 10% FBS, 0.00702 µM | 96.3 | 115 | 99.2
RPMI 5 mM glucose + 10% FBS, 0.0211 µM | 114 | 113 | 106
RPMI 5 mM glucose + 10% FBS, 0.0632 µM | 113 | 109 | 100
RPMI 5 mM glucose + 10% FBS, 0.19 µM | 107 | 111 | 102
RPMI 5 mM glucose + 10% FBS, 0.569 µM | 107 | 110 | 102
RPMI 5 mM glucose + 10% FBS, 1.71 µM | 95.7 | 102 | 99.6
RPMI 5 mM glucose + 10% FBS, 5.12 µM | 111 | 109 | 105
RPMI 5 mM glucose + 10% FBS, 15.4 µM | 92.9 | 104 | 97.5
RPMI 5 mM glucose + 10% FBS, 46.1 µM | 93.4 | 106 | 95.3
RPMI 5 mM glucose + 10% dialyzed FBS, 0.000781 µM | 93.6 | 104 | 111
RPMI 5 mM glucose + 10% dialyzed FBS, 0.00234 µM | 112 | 104 | 114
RPMI 5 mM glucose + 10% dialyzed FBS, 0.00702 µM | 108 | 114 | 130
RPMI 5 mM glucose + 10% dialyzed FBS, 0.0211 µM | 117 | 115 | 115
RPMI 5 mM glucose + 10% dialyzed FBS, 0.0632 µM | 104 | 113 | 113
RPMI 5 mM glucose + 10% dialyzed FBS, 0.19 µM | 88.3 | 111 | 106
RPMI 5 mM glucose + 10% dialyzed FBS, 0.569 µM | 105 | 102 | 92.6
RPMI 5 mM glucose + 10% dialyzed FBS, 1.71 µM | 104 | 97.3 | 110
RPMI 5 mM glucose + 10% dialyzed FBS, 5.12 µM | 103 | 108 | 110
RPMI 5 mM glucose + 10% dialyzed FBS, 15.4 µM | 113 | 98.1 | 93
RPMI 5 mM glucose + 10% dialyzed FBS, 46.1 µM | 92 | 100 | 100

NC(=O)c1ccc(I)c([N+](=O)[O-])c1
AUC of viability dose-response curve
Conditions | [1] | [2] | [3]
HPLM + 10% dialyzed FBS | 473 | 461 | 468
RPMI 5 mM glucose + 10% FBS | 470 | 457 | 475
RPMI 5 mM glucose + 10% dialyzed FBS | 467 | 468 | 464

cell viability [%]
Conditions | [4] | [5] | [6]
HPLM + 10% dialyzed FBS, 0.000781 µM | 104 | 117 | 130
HPLM + 10% dialyzed FBS, 0.00234 µM | 127 | 126 | 123
HPLM + 10% dialyzed FBS, 0.00702 µM | 108 | 124 | 110
HPLM + 10% dialyzed FBS, 0.0211 µM | 126 | 115 | 138
HPLM + 10% dialyzed FBS, 0.0632 µM | 126 | 130 | 126
HPLM + 10% dialyzed FBS, 0.19 µM | 130 | 139 | 140
HPLM + 10% dialyzed FBS, 0.569 µM | 133 | 133 | 128
HPLM + 10% dialyzed FBS, 1.71 µM | 124 | 134 | 117
HPLM + 10% dialyzed FBS, 5.12 µM | 123 | 132 | 126
HPLM + 10% dialyzed FBS, 15.4 µM | 117 | 128 | 124
HPLM + 10% dialyzed FBS, 46.1 µM | 123 | 125 | 117
RPMI 5 mM glucose + 10% FBS, 0.000781 µM | 106 | – | 125
RPMI 5 mM glucose + 10% FBS, 0.00234 µM | 124 | – | 125
RPMI 5 mM glucose + 10% FBS, 0.00702 µM | 131 | – | 120
RPMI 5 mM glucose + 10% FBS, 0.0211 µM | 137 | – | 131
RPMI 5 mM glucose + 10% FBS, 0.0632 µM | 137 | – | 119
RPMI 5 mM glucose + 10% FBS, 0.19 µM | 143 | – | 125
RPMI 5 mM glucose + 10% FBS, 0.569 µM | 145 | – | 126
RPMI 5 mM glucose + 10% FBS, 1.71 µM | 156 | – | 140
RPMI 5 mM glucose + 10% FBS, 5.12 µM | 120 | – | 133
RPMI 5 mM glucose + 10% FBS, 15.4 µM | 104 | – | 120
RPMI 5 mM glucose + 10% FBS, 46.1 µM | 111 | – | 118
RPMI 5 mM glucose + 10% dialyzed FBS, 0.000781 µM | 97.6 | – | 123
RPMI 5 mM glucose + 10% dialyzed FBS, 0.00234 µM | 113 | – | 120
RPMI 5 mM glucose + 10% dialyzed FBS, 0.00702 µM | 124 | – | 137
RPMI 5 mM glucose + 10% dialyzed FBS, 0.0211 µM | 118 | – | 143
RPMI 5 mM glucose + 10% dialyzed FBS, 0.0632 µM | 123 | – | 148
RPMI 5 mM glucose + 10% dialyzed FBS, 0.19 µM | 112 | – | 132
RPMI 5 mM glucose + 10% dialyzed FBS, 0.569 µM | 116 | – | 148
RPMI 5 mM glucose + 10% dialyzed FBS, 1.71 µM | 131 | – | 139
RPMI 5 mM glucose + 10% dialyzed FBS, 5.12 µM | 115 | – | 143
RPMI 5 mM glucose + 10% dialyzed FBS, 15.4 µM | 103 | – | 158
RPMI 5 mM glucose + 10% dialyzed FBS, 46.1 µM | 99.8 | – | 130

COC1=C2OC(=O)\C=C/C2=CC3=C1OC=C3
AUC of viability dose-response curve
Conditions | [1] | [2] | [3]
HPLM + 10% dialyzed FBS | 459 | 447 | 465
RPMI 5 mM glucose + 10% FBS | 458 | 449 | 451
RPMI 5 mM glucose + 10% dialyzed FBS | 456 | 426 | 466

cell viability [%]
Conditions | [4] | [5] | [6]
HPLM + 10% dialyzed FBS, 0.000781 µM | 121 | 118 | 117
HPLM + 10% dialyzed FBS, 0.00234 µM | 117 | 113 | 116
HPLM + 10% dialyzed FBS, 0.00702 µM | 129 | 115 | 120
HPLM + 10% dialyzed FBS, 0.0211 µM | 126 | 116 | 116
HPLM + 10% dialyzed FBS, 0.0632 µM | 124 | 112 | 116
HPLM + 10% dialyzed FBS, 0.19 µM | 123 | 107 | 123
HPLM + 10% dialyzed FBS, 0.569 µM | 121 | 108 | 107
HPLM + 10% dialyzed FBS, 1.71 µM | 115 | 102 | 118
HPLM + 10% dialyzed FBS, 5.12 µM | 116 | 99.7 | 109
HPLM + 10% dialyzed FBS, 15.4 µM | 107 | 61.3 | 101
HPLM + 10% dialyzed FBS, 46.1 µM | 93.4 | 84.6 | 116
RPMI 5 mM glucose + 10% FBS, 0.000781 µM | – | 118 | 108
RPMI 5 mM glucose + 10% FBS, 0.00234 µM | – | 117 | 115
RPMI 5 mM glucose + 10% FBS, 0.00702 µM | – | 117 | 115
RPMI 5 mM glucose + 10% FBS, 0.0211 µM | – | 111 | 117
RPMI 5 mM glucose + 10% FBS, 0.0632 µM | – | 109 | 121
RPMI 5 mM glucose + 10% FBS, 0.19 µM | – | 110 | 113
RPMI 5 mM glucose + 10% FBS, 0.569 µM | – | 113 | 96.5
RPMI 5 mM glucose + 10% FBS, 1.71 µM | – | 110 | 104
RPMI 5 mM glucose + 10% FBS, 5.12 µM | – | 109 | 108
RPMI 5 mM glucose + 10% FBS, 15.4 µM | – | 55.6 | 105
RPMI 5 mM glucose + 10% FBS, 46.1 µM | – | 86.8 | 97.3
RPMI 5 mM glucose + 10% dialyzed FBS, 0.000781 µM | 123 | 115 | 104
RPMI 5 mM glucose + 10% dialyzed FBS, 0.00234 µM | 132 | 117 | 109
RPMI 5 mM glucose + 10% dialyzed FBS, 0.00702 µM | 124 | 119 | 115
RPMI 5 mM glucose + 10% dialyzed FBS, 0.0211 µM | 110 | 125 | 117
RPMI 5 mM glucose + 10% dialyzed FBS, 0.0632 µM | 123 | 108 | 114
RPMI 5 mM glucose + 10% dialyzed FBS, 0.19 µM | 133 | 109 | 113
RPMI 5 mM glucose + 10% dialyzed FBS, 0.569 µM | 128 | 105 | 113
RPMI 5 mM glucose + 10% dialyzed FBS, 1.71 µM | 109 | 100 | 108
RPMI 5 mM glucose + 10% dialyzed FBS, 5.12 µM | 115 | 101 | 104
RPMI 5 mM glucose + 10% dialyzed FBS, 15.4 µM | 108 | 60.2 | 101
RPMI 5 mM glucose + 10% dialyzed FBS, 46.1 µM | 93.7 | 74.4 | 107
